The record followed here is patent EP4610348A1, “HEPATOLENTICULAR DEGENERATION CELL, PREPARATION METHOD THEREFOR, AND EVALUATION METHOD THEREFOR” (GUANGXIU-GAOXIN LIFE SCIENCES CO., LTD. HUNAN, priority 2022, dated 2024).

Holding throughout (type): cell-based, human
In one data set the test system is normal hepatocytes. In words: Effect of copper ion accumulation on cell viability (CCK-8). The settings on record: 48 hours. How it is done:
(§1) 3.4 Effect of copper ion accumulation on cell viability: The induced cells were digested and evenly inoculated in a 96-well plate, with about 3×10^4 cells per well, and edge wells were filled with sterile PBS. After the cells were adhered to the wall, a copper sulfate or copper chloride solution in different concentrations (0 mM, 0.5 mM, 1 mM, and 1.5 mM) were added, and 6 replicate wells were set in each group. The wells without cells were set as blank wells. After incubation at 37°C for 48 hours (fresh culture medium was replaced every 22 hours to 26 hours), the original culture medium was discarded, and the cells were washed three times with DPBS. Fresh culture medium (100 µL per well) was added, and a 10 µL CCK-8 reaction solution was added to each well, followed by incubating at 37 °C in the dark for 4 hours. After the incubation, the absorbance at 450 nm was detected using a microplate reader.

Data set [1] concerns hepatolenticular degeneration hepatocytes. The description is as above. As to conditions: 48 hours. As for the experimental part: as §1
Data set [2] deals with ATP7B protein in hepatolenticular degeneration hepatocyte. In words: Detection of ATP7B protein expression (Western blotting). The settings on record: after incubation with 100 µM to 300 µM copper sulfate or copper chloride. As for the experimental part: (§2) 3.2 Detection of ATP7B protein expression: Cells on the last day of induction were collected, and ATP7B protein expression levels in the hepatocytes before and after incubation with 100 µM to 300 µM of copper sulfate or copper chloride were detected by Western blotting method, with GAPDH protein as the internal reference. The induced cells were digested and collected in a 1.5 mL EP tube. An appropriate amount of protein lysis buffer was added depending on the cell solution volume (adding 200 µL RIPA lysis buffer for 1×10^6 cells). The cell solution was pipetted up and down to mix, and the cells were lysed in an ice bath with an ultrasonic cell disruptor for 15 minutes, then centrifuged at 13000 ×g and 4°C for 10 minutes. The supernatant was transferred to a new EP tube, and the protein concentration was detected using a BCA protein quantification kit. Polyacrylamide gel for SDS-PAGE was prepared, including preparing an 8% separating gel and a stacking gel. After the stacking gel was solidified, the comb was carefully pulled out. After a 40 µg sample and a 5 µL protein marker were loaded, the electrophoresis started at a 110 V constant voltage. After the Loading Buffer ran out of the separating gel, the electrophoresis stopped. […]
(In general: Immunoblotting shows a protein as a band on a membrane.)

Data set [3] concerns ATP7B protein in normal hepatocyte. The data set is described as above. The settings on record: after incubation with 100 µM to 300 µM copper sulfate or copper chloride. As for the experimental part: as §2
Data set [4] deals with ATP7B gene in hepatolenticular degeneration hepatocytes. As to the kind of experiment: Detection of ATP7B gene expression (qPCR). As to conditions: after incubation with 100 µM to 300 µM copper sulfate or copper chloride. How it is done:
(§3) 3.1 Detection of ATP7B gene expression: Cells on the last day of induction were collected, and ATP7B gene expression levels in the hepatocytes before and after incubation with 100 µM to 300 µM of copper sulfate or copper chloride were detected by qPCR method, with GAPDH gene as the internal reference. Primers were used for validation. The qPCR method was performed as follows: 95°C for 5 minutes; 45 cycles (94°C for 40 seconds, 54°C to 58°C for 10 seconds, 72°C for 10 seconds); and 72°C extension for 5 minutes.

Data set [5] has as its system ATP7B gene in normal hepatocytes. In words: Detection of ATP7B gene expression (qPCR). The settings on record: after incubation with 100 µM to 300 µM copper sulfate or copper chloride. As for the experimental part:
as §3

For orientation: cell viability means the share of living cells, or the viability signal relative to a control.

For `[Cu+2]` [copper ions], the cell viability is reported as 95.33% with normal hepatocytes (0.5 mM copper ions); 83.78% in the data set on normal hepatocytes (1 mM copper ions); 73.53% with normal hepatocytes (1.5 mM copper ions); 93.25% in data set [1] (0.5 mM copper ions); 67.49% in data set [1] (1 mM copper ions); 34.8% in data set [1] (1.5 mM copper ions). Further, the “expression level of the ATP7B protein” value in data set [2] was “still expresses a low level of the ATP7B protein”; in data set [3], “significantly increased”. Besides, the “expression level of the ATP7B gene” value was “not upregulated significantly” in data set [4] and “significantly upregulated” in data set [5].
